Source: ChEMBL document CHEMBL6087436, “The novel β-hairpin antimicrobial peptide D-G(RF)3 demonstrates exceptional antibacterial efficacy” (Eur J Med Chem, 2025)
The source made the active and inactive calls. The rule behind the calls is not given here. Where a SMILES comes first, the peptide text is derived from it. Bridges are numbered along the chain shown (N, C = ends). [ ]: non-standard residue; d: D form. The star is where a group is joined. X1 = CC[C@H](C)CCCCC(=O)*; dDab = NCC[C@@H](N)C(=O)O; Dab = NCC[C@H](N)C(=O)O

Assays:
[1] = test system: Staphylococcus epidermidis; assay: Antibacterial activity against Staphylococcus epidermidis ATCC 12228 assessed as inhibition of bacterial growth incubated for 18 hrs by microbroth dilution assay; assay type: functional
Klebsiella pneumoniae [2] = assay: Additive antibacterial activity against Klebsiella pneumoniae assessed as fractional inhibitory concentration index in presence of kanamycin incubated for 18 hrs by checkerboard method; assay type: functional
Bacillus subtilis = assay: Antibacterial activity against Bacillus subtilis ATCC 23857 assessed as inhibition of bacterial growth incubated for 18 hrs by microbroth dilution assay; assay type: functional
Klebsiella pneumoniae [3] = assay: Synergistic antibacterial activity against Klebsiella pneumoniae assessed as fractional inhibitory concentration index in presence of rifampin incubated for 18 hrs by checkerboard method; assay type: functional
Staphylococcus aureus [4] = assay: Synergistic antibacterial activity against Staphylococcus aureus assessed as fractional inhibitory concentration index in presence of bacitracin incubated for 18 hrs by checkerboard method; assay type: functional
Staphylococcus aureus [5] = assay: Additive antibacterial activity against Staphylococcus aureus assessed as fractional inhibitory concentration index in presence of ciprofloxacin incubated for 18 hrs by checkerboard method; assay type: functional
Klebsiella pneumoniae [6] = assay: In vivo antibacterial activity against Klebsiella pneumoniae ATCC 700603 infected in male Balb/c mouse lung infection model assessed as reduction in pulmonary bacterial load at 10 mg/kg, ip measured after 24 hrs (reference value: 3.05 x 10^9 CFU/g); assay type: functional
Klebsiella pneumoniae [7] = assay: Bactericidal activity against Klebsiella pneumoniae ATCC 700603 assessed as bacterial eradication by measuring bacterial counts at 2 times MIC measured after 30 mins by Time killing assay relative to control; assay type: functional; conditions: 0.5 h
Escherichia coli [8] = assay: Synergistic antibacterial activity against Escherichia coli assessed as fractional inhibitory concentration index in presence of kanamycin incubated for 18 hrs by checkerboard method; assay type: functional
Pseudomonas aeruginosa [9] = assay: Synergistic antibacterial activity against Pseudomonas aeruginosa assessed as fractional inhibitory concentration index in presence of polymyxin B incubated for 18 hrs by checkerboard method; assay type: functional
Escherichia coli [10] = assay: Antibacterial activity against Escherichia coli ATCC 25922 assessed as inhibition of bacterial growth incubated for 18 hrs by microbroth dilution assay; assay type: functional
Klebsiella pneumoniae [11] = assay: In vivo antibacterial activity against Klebsiella pneumoniae ATCC 700603 infected in male Balb/c mouse lung infection model assessed as reduction in pulmonary bacterial load at 5 mg/kg, ip measured after 24 hrs (reference value: 3.05 x 10^9 CFU/g); assay type: functional
Staphylococcus aureus [12] = assay: Antibacterial activity against Staphylococcus aureus ATCC 25923 assessed as fold change in activity in presence of 2 mM CaCl2; assay type: functional
Pseudomonas aeruginosa [13] = assay: Induction of drug resistance in Pseudomonas aeruginosa ATCC 27853 assessed as fold increase in MIC incubated for 24 hrs and measured under 40 passages; assay type: functional
Staphylococcus aureus [14] = assay: Antibacterial activity against Staphylococcus aureus ATCC 25923 assessed as fold change in activity in presence of 1 mM MgCl2; assay type: functional
Pseudomonas aeruginosa [15] = assay: Synergistic antibacterial activity against Pseudomonas aeruginosa assessed as fractional inhibitory concentration index in presence of rifampin incubated for 18 hrs by checkerboard method; assay type: functional
Staphylococcus aureus [16] = assay: Antibacterial activity against Staphylococcus aureus ATCC 25923 assessed as fold decrease in presence of 150 mM NaCl; assay type: functional
Pseudomonas aeruginosa [17] = assay: Synergistic antibacterial activity against Pseudomonas aeruginosa assessed as fractional inhibitory concentration index in presence of imipenem incubated for 18 hrs by checkerboard method; assay type: functional
Pseudomonas aeruginosa [18] = assay: Antibacterial activity against Pseudomonas aeruginosa ATCC 27853 assessed as inhibition of bacterial growth incubated for 18 hrs by microbroth dilution assay; assay type: functional
Klebsiella pneumoniae [19] = assay: Antibacterial activity against Klebsiella pneumoniae ATCC 700603 assessed as inhibition of bacterial growth incubated for 18 hrs by microbroth dilution assay; assay type: functional
Staphylococcus aureus [20] = assay: Antibacterial activity against Staphylococcus aureus ATCC 25923 assessed as inhibition of bacterial growth incubated for 18 hrs by microbroth dilution assay; assay type: functional
Escherichia coli [21] = assay: Synergistic antibacterial activity against Escherichia coli assessed as fractional inhibitory concentration index in presence of rifampin incubated for 18 hrs by checkerboard method; assay type: functional
[22] = Acute toxicity in male balb/c mouse assessed as lethal dose at ip administration; assay type: organism-based; conditions: in vivo
[23] = Acute toxicity in IP dosed male balb/c mouse assessed as animal death; assay type: organism-based; conditions: in vivo
[24] = Acute toxicity in male balb/c mouse assessed as alveolar shrinkage in lung administered intraperitoneally by H and E staining based analysis; assay type: tissue-based; conditions: in vivo, ip
[25] = Acute toxicity in male balb/c mouse assessed as inflammatory cell infiltration in lung administered intraperitoneally by H and E staining based analysis; assay type: tissue-based; conditions: in vivo, ip
[26] = Acute toxicity in male balb/c mouse assessed as respiratory depression by measuring tissue bleeding in lung administered intraperitoneally by H and E staining based analysis; conditions: in vivo, ip
Escherichia coli [27] = assay: Antimicrobial activity against Escherichia coli at 2 times MIC in presence of LPS preincubated for 1 hr followed by bacterial addition and measured after 6 hrs by LPS competitive inhibition assay; assay type: functional, organism-based
Klebsiella pneumoniae [28] = assay: Inhibition of biofilm formation in Klebsiella pneumoniae ATCC 700603 at 1 uM incubated for 24 hrs by crystal violet staining based analysis; assay type: functional, organism-based
Cell membrane [29] = assay: Induction of Outer membrane permeabilization in Escherichia coli at 8 uM by NPN-dye based fluorescence analysis; assay type: subcellular
Pseudomonas aeruginosa [30] = assay: Inhibition of biofilm formation in Pseudomonas aeruginosa ATCC 27853 incubated for 24 hrs by crystal violet staining based analysis; assay type: functional, organism-based; conditions: dose 1-32 µM
Klebsiella pneumoniae [31] = assay: In vivo antibacterial activity against Klebsiella pneumoniae ATCC 700603 infected in male Balb/c mouse lung infection model assessed as reduction in serous exudation of alveolar cavities at 10 mg/kg, ip measured after 24 hrs by H and E staining based analysis; assay type: functional, organism-based
Klebsiella pneumoniae [32] = assay: In vivo antibacterial activity against Klebsiella pneumoniae ATCC 700603 infected in male Balb/c mouse lung infection model assessed as increase on compensatory dilation at 5 mg/kg, ip and measured after 24 hrs; assay type: functional, organism-based
Staphylococcus aureus [33] = assay: Inhibition of biofilm formation in Staphylococcus aureus ATCC 25923 incubated for 24 hrs by crystal violet staining based analysis; assay type: functional, organism-based; conditions: dose 1-32 µM
Klebsiella pneumoniae [34] = assay: In vivo antibacterial activity against Klebsiella pneumoniae ATCC 700603 infected in male Balb/c mouse lung infection model assessed as reduction in crumpling alveoli at 10 mg/kg, ip measured after 24 hrs by H and E staining based analysis; assay type: functional, organism-based
Escherichia coli [35] = assay: Inhibition of biofilm formation in Escherichia coli ATCC 25922 incubated for 24 hrs by crystal violet staining based analysis; assay type: functional, organism-based; conditions: dose 1-32 µM
Klebsiella pneumoniae [36] = assay: Inhibition of biofilm formation in Klebsiella pneumoniae ATCC 700603 incubated for 24 hrs by crystal violet staining based analysis; assay type: functional, organism-based; conditions: dose 1-32 µM
Klebsiella pneumoniae [37] = assay: In vivo antibacterial activity against Klebsiella pneumoniae ATCC 700603 infected in male Balb/c mouse lung infection model assessed as reduction in alveoli expansion at 10 mg/kg, ip measured after 24 hrs by H and E staining based analysis; assay type: functional, organism-based
Escherichia coli [38] = assay: Inhibition of biofilm formation in Escherichia coli ATCC 25922 at >= 2 uM incubated for 24 hrs by crystal violet staining based analysis; assay type: functional, organism-based
Cell membrane [39] = assay: Induction of cell membrane permeability in Escherichia coli assessed as rough convex surface at 2 times MIC by SEM analysis; assay type: subcellular
Escherichia coli [40] = assay: Inhibition of biofilm formation in Escherichia coli ATCC 25922 at 1 uM incubated for 24 hrs by crystal violet staining based analysis; assay type: functional, organism-based

## CC(C)CCCCC(=O)N[C@@H](CCN)C(=O)N[C@H](C(=O)N[C@@H](CCN)C(=O)N[C@H]1CCNC(=O)[C@H]([C@@H](C)O)NC(=O)[C@H](CCN)NC(=O)[C@H](CCN)NC(=O)[C@H](CC(C)C)NC(=O)[C@@H](Cc2ccccc2)NC(=O)[C@H](CCN)NC1=O)[C@@H](C)O.CC[C@H](C)CCCCC(=O)N[C@@H](CCN)C(=O)N[C@H](C(=O)N[C@@H](CCN)C(=O)N[C@H]1CCNC(=O)[C@H]([C@@H](C)O)NC(=O)[C@H](CCN)NC(=O)[C@H](CCN)NC(=O)[C@H](CC(C)C)NC(=O)[C@@H](Cc2ccccc2)NC(=O)[C@H](CCN)NC1=O)[C@@H](C)O (X1-[Dab]T[Dab][Dab][Dab][dF]L[Dab][Dab]T; lactam 4-C) [listing 1 of 2 here]
[1]
  MIC: 8 µM
Klebsiella pneumoniae [2]
  fractional inhibitory concentration index (FICI): 0.563
Bacillus subtilis
  MIC: 4 µM
Klebsiella pneumoniae [3]
  fractional inhibitory concentration index (FICI): 0.375
Staphylococcus aureus [4]
  fractional inhibitory concentration index (FICI): 0.5
Staphylococcus aureus [5]
  fractional inhibitory concentration index (FICI): 0.75
Klebsiella pneumoniae [6]
  Activity: 2.46 10^8CFU/g
Klebsiella pneumoniae [7]
  Activity: 100%
Escherichia coli [8]
  fractional inhibitory concentration index (FICI): 0.313
Pseudomonas aeruginosa [9]
  fractional inhibitory concentration index (FICI): 0.188
Escherichia coli [10]
  MIC: 2 µM
Klebsiella pneumoniae [11]
  Activity: 1.48 10^8CFU/g
Staphylococcus aureus [12]
  fold change (FC): -2
Pseudomonas aeruginosa [13]
  fold change (FC): 8
Staphylococcus aureus [14]
  fold change (FC): -2
Pseudomonas aeruginosa [15]
  fractional inhibitory concentration index (FICI): 0.313
Staphylococcus aureus [16]
  fold change (FC): -4
Pseudomonas aeruginosa [17]
  fractional inhibitory concentration index (FICI): 0.313
Pseudomonas aeruginosa [18]
  MIC: 2 µM
Klebsiella pneumoniae [19]
  MIC: 2 µM
Staphylococcus aureus [20]
  MIC: 8 µM
Escherichia coli [21]
  fractional inhibitory concentration index (FICI): 0.313

## CC(C)CCCCC(=O)N[C@@H](CCN)C(=O)N[C@H](C(=O)N[C@@H](CCN)C(=O)N[C@H]1CCNC(=O)[C@H]([C@@H](C)O)NC(=O)[C@H](CCN)NC(=O)[C@H](CCN)NC(=O)[C@H](CC(C)C)NC(=O)[C@@H](Cc2ccccc2)NC(=O)[C@H](CCN)NC1=O)[C@@H](C)O.CC[C@H](C)CCCCC(=O)N[C@@H](CCN)C(=O)N[C@H](C(=O)N[C@@H](CCN)C(=O)N[C@H]1CCNC(=O)[C@H]([C@@H](C)O)NC(=O)[C@H](CCN)NC(=O)[C@H](CCN)NC(=O)[C@H](CC(C)C)NC(=O)[C@@H](Cc2ccccc2)NC(=O)[C@H](CCN)NC1=O)[C@@H](C)O (X1-[Dab]T[Dab][Dab][Dab][dF]L[Dab][Dab]T; lactam 4-C) [listing 2 of 2 here]
[22]
  LD50: 17.9 mg/kg
[23]
  Activity: Toxic
[24]
  Activity: Toxic
[25]
  Activity: Toxic
[26]
  Activity: Toxic

## CC(C)CCCCC(=O)N[C@@H](CCN)C(=O)N[C@H](C(=O)N[C@@H](CCN)C(=O)N[C@H]1CCNC(=O)[C@H]([C@@H](C)O)NC(=O)[C@H](CCN)NC(=O)[C@H](CCN)NC(=O)[C@H](CC(C)C)NC(=O)[C@@H](Cc2ccccc2)NC(=O)[C@@H](CCN)NC1=O)[C@@H](C)O.CC[C@H](C)CCCCC(=O)N[C@@H](CCN)C(=O)N[C@H](C(=O)N[C@@H](CCN)C(=O)N[C@H]1CCNC(=O)[C@H]([C@@H](C)O)NC(=O)[C@H](CCN)NC(=O)[C@H](CCN)NC(=O)[C@H](CC(C)C)NC(=O)[C@@H](Cc2ccccc2)NC(=O)[C@@H](CCN)NC1=O)[C@@H](C)O (X1-[Dab]T[Dab][Dab][dDab][dF]L[Dab][Dab]T; lactam 4-C)
Escherichia coli [27]
  Activity: inactive
Klebsiella pneumoniae [28]
  inhibition: Active
Cell membrane [29]
  Activity: Active
Pseudomonas aeruginosa [30]
  inhibition: Dose-dependent-effect
Klebsiella pneumoniae [31]
  Activity: Active
Klebsiella pneumoniae [32]
  Activity: Active
Staphylococcus aureus [33]
  inhibition: Dose-dependent-effect
Klebsiella pneumoniae [34]
  Activity: Active
Escherichia coli [35]
  inhibition: Dose-dependent-effect
Klebsiella pneumoniae [36]
  inhibition: Dose-dependent-effect
Klebsiella pneumoniae [37]
  Activity: Active
Escherichia coli [38]
  inhibition: Active
Cell membrane [39]
  Activity: Active
Escherichia coli [40]
  inhibition: Active
